Legend:
[1] = Precipitation observed in DSF dose response; type: physicochemical; details: DSF buffer 100 mM Hepes, 20 mM MgCl2, pH 7, 1% DMSO
Protocol: The capacity of the compounds to stabilise IDUA was assessed by DSF. The thermal denaturation of purified human native enzyme was monitored in the presence of the extrinsic fluorescent probe SYPRO® Orange (Thermo Fisher Scientific, Waltham, MA, USA), which binds to hydrophobic parts of proteins that become exposed as the protein unfolds. […] Reactions containing 12.5 μL of 1.5 μM rhIDUA protein (purchased from R&D Systems) in 100 mM Hepes, 20 mM MgCl2, pH 7, to a final protein concentration of 0.75 μM with SYPRO Orange 10X, and 12.5 μL of the different compound solutions dissolved in 100% DMSO and diluted into the protein buffer to achieve final concentrations of 1% DMSO. The intensity of SYPRO Orange fluorescence after a systematic increase in temperature was monitored in the Roche LightCycler® 480 II device (Roche Diagnostics). The significance of the melting temperature (Tm) shifts was evaluated based on two criteria: absolute ΔTm shift > 0.5 °C (instrumental criterion) and absolute ΔTm standard deviation ≤ 0.2 (statistical criterion). The thermal shift dose response was performed at various increasing concentrations (from 0.04 to 90 μM) of compound #18 (GT-01803) with rhIDUA (obtained from the Institute of Biotechnology and Biomedicine at the Autonomous University of Barcelona (UAB), Bellaterra, Spain).

IDUA = target: T1, IDUA (Homo sapiens, UniProt P35475); assay: Denaturation prevention (isothermal denaturation) assay with SYPRO Orange; type: binding; set-up: purchased R&D Systems; details: 30 μM compound, pH 7.0, 37 °C
T1 sequence (P35475 28-653): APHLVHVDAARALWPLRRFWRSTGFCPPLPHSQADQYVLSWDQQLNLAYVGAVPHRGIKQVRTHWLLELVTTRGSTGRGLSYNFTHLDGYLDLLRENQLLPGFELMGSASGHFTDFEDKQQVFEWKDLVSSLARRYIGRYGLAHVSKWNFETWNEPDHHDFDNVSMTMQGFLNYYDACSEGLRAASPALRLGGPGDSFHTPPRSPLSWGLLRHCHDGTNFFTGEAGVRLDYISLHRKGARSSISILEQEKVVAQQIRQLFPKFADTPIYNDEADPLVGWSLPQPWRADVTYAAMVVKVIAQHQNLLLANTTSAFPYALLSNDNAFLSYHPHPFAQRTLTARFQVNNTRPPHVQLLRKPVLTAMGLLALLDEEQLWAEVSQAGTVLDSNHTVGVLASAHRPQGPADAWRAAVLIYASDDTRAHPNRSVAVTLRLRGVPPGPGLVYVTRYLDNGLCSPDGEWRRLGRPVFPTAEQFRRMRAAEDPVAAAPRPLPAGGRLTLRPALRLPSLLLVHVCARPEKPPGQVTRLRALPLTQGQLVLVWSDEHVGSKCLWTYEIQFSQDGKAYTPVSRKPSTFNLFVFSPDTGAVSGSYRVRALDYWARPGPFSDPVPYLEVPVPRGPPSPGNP
Protocol: The capacity of the compounds to stabilize IDUA in neutral pH buffer was assessed using the denaturation prevention assay. Briefly, rhIDUA (obtained from the Institute of Biotechnology and Biomedicine in the UAB, Bellaterra, Spain) was combined to a final concentration of 1 μM with 5X SYPRO Orange and 30 μM of the corresponding compound in a final reaction volume of 25 μL in 100 mM Hepes, 20 mM MgCl2, pH 7 buffer, or 25 mM NaAc, 150 mM NaCl, pH 5.2. Reactions were incubated at 37 °C, and SYPRO Orange fluorescence intensity was monitored at the indicated time points using Glomax® Discover microplate reader (Promega, Madison, WI, USA). Two independent experiments in triplicate at one concentration (30μM) of compound #18 (GT-01803) were performed for denaturation prevention assays.

rhIDUA (Aldurazyme) = target: T2, rhIDUA (Aldurazyme) (Homo sapiens, UniProt P35475); assay: IDUA assay in plasma of mice co-administered rhIDUA and GT-01803; type: in vivo, male C57BL/6 mice; details: GT-01803 5, 10, 20 mg/kg i.v. + rhIDUA 1.2 mg/kg i.v.; 0.5, 1, 2 h; dose-dependent, significant at 20 mg/kg
T2 sequence (P35475 28-653): T1 sequence (P35475 28-653)
Protocol: Mice studies were performed by Sai Life Sciences (Pune, India). All procedures of the present study were in accordance with the guidelines provided by the Committee for the Purpose of Control and Supervision of Experiments on Animals (CPCSEA) as published in The Gazette of India, December 15, 1998. In addition, prior approval from the Institutional Animal Ethics Committee (IAEC) was obtained before the initiation of the study. Healthy male C57BL/6 mice (8–10 weeks old) weighing between 22 and 25 g were procured (Global, Pune, India). Three to five mice were housed in each cage. Temperature and humidity were maintained at 22 ± 2 °C and 41–63%, respectively, and illumination was controlled to give a sequence of a 12 h light and 12 h dark cycle. In the study’s in-life phase, we provided all mice with cage enrichment to minimize anxiety. We conducted bone marrow sampling under isoflurane anesthesia, maintaining it throughout the entire procedure. […] All procedures were carried out according to our in-house Standard Operating Procedures and monitored by a veterinarian if required. […]
Plasma samples from mice were collected at 0.5, 1 and 2 h after treatment with compound #18 (GT-01803). […] The plate was read at excitation 355 nm and emission 460 nm in TECAN Infinite® M1000 Pro reader (Thermo Fisher Scientific, UK). […]

SMILES: CCN(CC(=O)Nc1c(Cl)cccc1Cl)Cc1nc2ccsc2c(=O)[nH]1 [GT-01803]
- concentration at which precipitation was observed [1]: 100 µM
- pH-induced denaturation of rhIDUA (IDUA): slowed down
- IDUA enzymatic activity levels in plasma (rhIDUA (Aldurazyme)): increased
